Converted amounts (≈) assume the structure as drawn.
Assays:
Assay type in all cases: physicochemical
[1] = Determination of apparent solubility (shake flask, 37 °C, 12 h, HPLC external standard); details: for solubility at 12 h: thermodynamic from solid; for solubility at 12 h / Apparent solubility: 37 °C ± 0.5 °C, 12h
Procedure: Example 11: Determination of Apparent solubility
The apparent solubility of the amorphous form of Apremilast in the present invention and the Apremilast crystal form is compared.
The test objects were as follows: the amorphous form of Apremilast obtained in Example 1 of the present invention; the crystal Form B of Apremilast was prepared according to the patent CN102702070 Example 12. […]
Preparation of diluents of different pH: • (1) pH=1.0 diluent: Add 9 mL of concentrated HCl to a 1000 mL of volumetric flask, diluted to the volume with water. • (2) pH=2.0 diluent: Solution A: Transfer 16.6 mL of phosphoric acid to a 100 mL volumetric flask, dilute to the volume with water, shake to mix. Solution B: Weigh and transfer 71.63g of […] phosphate to a 1000 mL of volumetric flask, dilute to the volume with water, dissolve and mix well. […]
Example 51: Determination of Apparent solubility
The test objects were as follows: the solid dispersion of amorphous Apremilast obtained in Example 23 of the present invention; the physical mixture comprising Apremilast crystalline (Apremilast crystal Form B, sorbitol and polyacrylic resin Eudragit L100 were mixed physically, and the weight ratio is 1:1:1, and the crystal Form B of Apremilast was prepared according to the patent CN102702070 Example 12.).

[2] = Impact factor test (high temperature / high humidity stress stability; related substances by HPLC, crystallinity by XRPD)
Procedure: Example 9: Impact factor test of the amorphous Apremilast
Material: Amorphous Apremilast was prepared according to the method of Example 1
(§1) Experiment conditions: temperature 40 °C ± 2 °C, humidity 75% ± 5%
The substance was detected by HPLC.
Example 46: Impact factor test of the solid dispersion of amorphous Apremilast and hydroxypropylcellulose SSL and povidone K30
Material: the solid dispersion of amorphous Apremilast and hydroxypropylcellulose SSL and povidone K30 was prepared according to the method of Example 12
Experiment conditions: temperature 40 °C ± 2 °C, humidity 75% ± 5% The substance was detected by HPLC.
Example 49: Impact factor test of the solid dispersion of amorphous Apremilast, sorbitol and polyacrylic resin Eudragit L100 […]

[3] = Accelerated stability test (related substances by HPLC, crystallinity by XRPD); details: for Related substances (Total impurities %) / crystalline (XRPD): Temperature: 40°C±2°C, Humidity: 75%±5%
Procedure: Example 10: Accelerated stability test of the amorphous Apremilast
Material: amorphous Apremilsat was prepared according to the method of Example 1.
as §1
The substance was detected by HPLC. […]

[4] = Temperature 40 °C ± 2 °C, 0 day
[5] = Temperature 40 °C ± 2 °C, 5 days
[6] = Temperature 40 °C ± 2 °C, 10 days
[7] = Temperature 60 °C ± 2 °C, 0 day
[8] = Temperature 60 °C ± 2 °C, 5 days
[9] = Temperature 60 °C ± 2 °C, 10 days
[10] = conditions of high temperature, high humidity after 10 days
[11] = accelerated test conditions after 6 months

SMILES: CCOc1cc([C@@H](CS(C)(=O)=O)N2C(=O)c3cccc(NC(C)=O)c3C2=O)ccc1OC [amorphous Apremilast, N-[2-[(1S)-1-(3-ethoxy-4-Methoxyphenyl)-2-(Methylsulfonyl)ethyl]-2,3-dihydro-1,3-dioxo-1H-isoindol-4-yl]-Acetamide]
- apparent solubility compared with the crystal form or the physical mixture comprising crystal Form B ([1]; at each pH): significantly higher
- apparent solubility increases ([1]; in most pH conditions): more than 60%
- solubility at 12 h ([1]; pH 3.0 acetate diluent, 37 °C, pH 3, aqueous buffer, pH value of Dilution 3.0): 66.8 µg/mL (≈ 145 µM)
- solubility at 12 h ([1]; pH 4.5 diluent, 37 °C, pH 4.5, aqueous buffer, pH value of Dilution 4.5): 42.2 µg/mL (≈ 91.7 µM)
- solubility at 12 h ([1]; pH 6.8 phosphate diluent, 37 °C, pH 6.8, aqueous buffer, pH value of Dilution 6.8): 23.2 µg/mL (≈ 50.4 µM)
- solubility at 12 h ([1]; pH 7.4 phosphate diluent, 37 °C, pH 7.4, aqueous buffer, pH value of Dilution 7.4): 18.7 µg/mL (≈ 40.6 µM)
- Apparent solubility ([1]; pH value of Dilution 2.0, listed as The amorphous form of Apremilast obtained in Example 1): 19.32 µg/mL
- Apparent solubility ([1]; pH value of Dilution 5.0, listed as The amorphous form of Apremilast obtained in Example 1): 22.81 µg/mL
- solubility at 12 h ([1]; phthalate buffer pH 5.6, 37 °C, pH 5.6, aqueous buffer, pH value of Dilution 5.6): 30 µg/mL (≈ 65.2 µM)
- Related substances (Total impurities %) ([2]; Humidity 75%±5%, 0 day): 0.08%
- crystalline (XRPD) ([2]; Humidity 75%±5%, 0 day): There is no peak of crystalline Apremilast
- Related substances (Total impurities %) ([2]; Humidity 75%±5%, 5 days): 0.08%
- crystalline (XRPD) ([2]; Humidity 75%±5%, 5 days): There is no peak of crystalline Apremilast
- Related substances (Total impurities %) ([2]; Humidity 75%±5%, 10 days): 0.09%
- crystalline (XRPD) ([2]; Humidity 75%±5%, 10 days): There is no peak of crystalline Apremilast
- Related substances (Total impurities %) ([2]; Humidity 90%±5%, 0 day): 0.08%
- crystalline (XRPD) ([2]; Humidity 90%±5%, 0 day): There is no peak of crystalline Apremilast
- Related substances (Total impurities %) ([2]; Humidity 90%±5%, 5 days): 0.09%
- crystalline (XRPD) ([2]; Humidity 90%±5%, 5 days): There is no peak of crystalline Apremilast
- Related substances (Total impurities %) ([2]; Humidity 90%±5%, 10 days): 0.11%
- crystalline (XRPD) ([2]; Humidity 90%±5%, 10 days): There is no peak of crystalline Apremilast
- Related substances (Total impurities %) [2, 4]: 0.08%
- crystalline (XRPD) [2, 4]: There is no peak of crystalline Apremilast
- Related substances (Total impurities %) [2, 5]: 0.10%
- crystalline (XRPD) [2, 5]: There is no peak of crystalline Apremilast
- Related substances (Total impurities %) [2, 6]: 0.12%
- crystalline (XRPD) [2, 6]: There is no peak of crystalline Apremilast
- Related substances (Total impurities %) [2, 7]: 0.08%
- crystalline (XRPD) [2, 7]: There is no peak of crystalline Apremilast
- Related substances (Total impurities %) [2, 8]: 0.12%
- crystalline (XRPD) [2, 8]: There is no peak of crystalline Apremilast
- Related substances (Total impurities %) [2, 9]: 0.14%
- crystalline (XRPD) [2, 9]: There is no peak of crystalline Apremilast
- changes in the related substances [2, 10]: no significant changes
- crystallization of Apremilast [2, 10]: no crystallization of Apremilast was observed
- Related substances (Total impurities %) ([3]; 0 month): 0.08%
- crystalline (XRPD) ([3]; 0 month): There is no peak of crystalline Apremilast
- Related substances (Total impurities %) ([3]; 1 month): 0.10%
- crystalline (XRPD) ([3]; 1 month): There is no peak of crystalline Apremilast
- Related substances (Total impurities %) ([3]; 2 months): 0.14%
- crystalline (XRPD) ([3]; 2 months): There is no peak of crystalline Apremilast
- Related substances (Total impurities %) ([3]; 3 months): 0.16%
- crystalline (XRPD) ([3]; 3 months): There is no peak of crystalline Apremilast
- Related substances (Total impurities %) ([3]; 6 months): 0.18%
- crystalline (XRPD) ([3]; 6 months): There is no peak of crystalline Apremilast
- changes in the related substances [3, 11]: no significant changes
- crystallization of Apremilast [3, 11]: no crystallization of Apremilast was observed

SMILES: CCOc1cc([C@@H](CS(C)(=O)=O)N2C(=O)c3cccc(NC(C)=O)c3C2=O)ccc1OC [The crystal Form B of Apremilast, N-[2-[(1S)-1-(3-ethoxy-4-Methoxyphenyl)-2-(Methylsulfonyl)ethyl]-2,3-dihydro-1,3-dioxo-1H-isoindol-4-yl]-Acetamide, reference compound]
- Apparent solubility ([1]; pH value of Dilution 2.0): 7.86 µg/mL
- Apparent solubility ([1]; pH value of Dilution 3.0): 48.12 µg/mL
- Apparent solubility ([1]; pH value of Dilution 4.5): 24.18 µg/mL
- Apparent solubility ([1]; pH value of Dilution 5.0): 9.99 µg/mL
- Apparent solubility ([1]; pH value of Dilution 5.6): 16.71 µg/mL
- Apparent solubility ([1]; pH value of Dilution 6.8): 12.53 µg/mL
- Apparent solubility ([1]; pH value of Dilution 7.4): 10.71 µg/mL

From EP3378852A1, “AMORPHOUS FORM OF APREMILAST, PREPARATION METHOD THEREFOR, AND APPLICATION THEREOF” (Changzhou Ainuoxinrui Pharmaceuticals, Ltd., priority 2015, dated 2017)
